Structures are written as SMILES. Values after ≈ are worked out from the molar mass of the structure shown.

MIC and CC50 data for 68 compounds are collected here from ChEMBL document CHEMBL1139108, “New thiopyrazolo[3,4-d]pyrimidine derivatives as anti-mycobacterial agents” (Bioorg Med Chem Lett, 2007).

For data set [1], the system named is Mycobacterium tuberculosis. Nature of the data set: Antimycobacterial activity against Mycobacterium tuberculosis H37Rv. Type of data set: functional.
Data set [2] is described as follows: Cytotoxicity against human HepG2 cells. It counts as cell-based. The following applies: read-out: TD50 (the source's name).

One may read the MIC as the least concentration at which growth counts as inhibited. On to `C#CCSc1ncnc2c1cnn2CC=C`, for which the MIC in data set [1] came out at 63 µg/mL (≈ 274 µM).

As for `C=CCSc1ncnc2c1cnn2CC1CC1`, the MIC in data set [1] amounted to 32 µg/mL (≈ 130 µM).

Take `OCCSc1ncnc2[nH]ncc12`: the MIC in data set [1] turned out to be 250 µg/mL (≈ 1270 µM).

For the compound `C#CCSc1ncnc2c1cnn2CC#C`, 63 µg/mL (≈ 276 µM) was the least that counted as inhibitory in data set [1] (MIC).

`C#CCn1ncc2c(SCC=C)ncnc21` showed an MIC in data set [1] of 32 µg/mL (≈ 139 µM).

Turning to `C=CCSc1ncnc2c1cnn2CC#N`, the MIC in data set [1] is 16 µg/mL (≈ 69.2 µM).

In data set [1], `C=CCSc1ncnc2c1cnn2Cc1ccccc1Cl` returned an MIC of 63 µg/mL (≈ 199 µM).

In turn, `c1ccc(CSc2ncnc3c2cnn3Cc2ccncc2)cc1` displayed an MIC in data set [1] of 16 µg/mL (≈ 48 µM).

For `C=CCn1ncc2c(SCc3ccccc3)ncnc21`, inhibition of growth in data set [1] (MIC) required 32 µg/mL (≈ 113 µM).

In data set [1], `Clc1ccccc1CSc1ncnc2[nH]ncc12` showed an MIC of 250 µg/mL (≈ 903 µM).

On to `c1ccc(Cn2ncc3c(SCC4CC4)ncnc32)cc1`, for which the lowest concentration to inhibit growth in data set [1] (MIC) was 16 µg/mL (≈ 54 µM).

As for `C=CCSc1ncnc2c1cnn2Cc1ccncc1`, 63 µg/mL (≈ 222 µM) was the least that counted as inhibitory in data set [1] (MIC).

Turning to `N#CCSc1ncnc2c1cnn2Cc1ccccc1`, the MIC in data set [1] came out at 32 µg/mL (≈ 114 µM).

`c1ccc(Cn2ncc3c(SCc4cccnc4)ncnc32)cc1` yielded an MIC in data set [1] of 32 µg/mL (≈ 96 µM).

In data set [1], `C=CCCSc1ncnc2c1cnn2Cc1ccccc1` yielded an MIC of 16 µg/mL (≈ 54 µM).

`C#CCn1ncc2c(SCc3ccccc3)ncnc21` displayed an MIC in data set [1] of 32 µg/mL (≈ 114 µM).

Compound `Clc1ccc(CSc2ncnc3c2cnn3Cc2ccc(Cl)cc2)cc1` displayed an MIC in data set [1] of 63 µg/mL (≈ 157 µM).

In turn, `C=CCSc1ncnc2c1cnn2Cc1cccnc1` showed an MIC in data set [1] of 63 µg/mL (≈ 222 µM).

As to `c1nc(SCC2CC2)c2cn[nH]c2n1`, in data set [1], inhibition of growth (MIC) required 125 µg/mL (≈ 606 µM).

`N#CCSc1ncnc2c1cnn2CC#N` displayed an MIC in data set [1] of 8 µg/mL (≈ 34.7 µM).

As for `Clc1ccccc1Cn1ncc2c(SCc3ccccc3)ncnc21`, 16 µg/mL (≈ 43.6 µM) was the least that counted as inhibitory in data set [1] (MIC).

The compound `C=CCCSc1ncnc2c1cnn2CC=C` came in with an MIC in data set [1] of 32 µg/mL (≈ 130 µM).

`C=CCCSc1ncnc2c1cnn2CC#N` had an MIC in data set [1] of 63 µg/mL (≈ 257 µM).

`c1cncc(CSc2ncnc3[nH]ncc23)c1` gave an MIC in data set [1] of 250 µg/mL (≈ 1030 µM).

As to `N#CCSc1ncnc2c1cnn2Cc1cccnc1`, the MIC in data set [1] came to 63 µg/mL (≈ 223 µM).

In data set [1], `C=CCCn1ncc2c(SCC=C)ncnc21` came in with an MIC of 63 µg/mL (≈ 256 µM).

In data set [1], `Clc1ccc(CSc2ncnc3c2cnn3Cc2ccccc2)cc1` yielded an MIC of 32 µg/mL (≈ 87.2 µM).

As for `C=CCSc1ncnc2c1cnn2Cc1ccc(Cl)cc1`, the MIC in data set [1] stood at 16 µg/mL (≈ 50.5 µM).

In data set [1], `c1ccc(CSc2ncnc3[nH]ncc23)cc1` showed an MIC of 250 µg/mL (≈ 1030 µM).

On to `CCCSc1ncnc2[nH]ncc12`, for which inhibition of growth in data set [1] (MIC) required 125 µg/mL (≈ 643 µM).

Compound `C=CCSc1ncnc2c1cnn2CC=C` registered an MIC in data set [1] of 125 µg/mL (≈ 538 µM).

The compound `N#CCn1ncc2c(SCc3ccccc3)ncnc21` displayed an MIC in data set [1] of 32 µg/mL (≈ 114 µM).

For `c1ccc(CSc2ncnc3c2cnn3CC2CC2)cc1`, it took 250 µg/mL (≈ 843 µM) to inhibit growth in data set [1] (MIC).

Regarding `N#CCSc1ncnc2c1cnn2Cc1ccc(Cl)cc1`, in data set [1], the MIC amounted to 125 µg/mL (≈ 396 µM).

In data set [1], `C=CCCSc1ncnc2[nH]ncc12` showed an MIC of 125 µg/mL (≈ 606 µM).

In the case of `CCCSc1ncnc2c1cnn2Cc1ccccc1`, the MIC in data set [1] was 16 µg/mL (≈ 56.3 µM).

Turning to `OCCn1ncc2c(SCc3ccccc3)ncnc21`, in data set [1], the MIC stood at 125 µg/mL (≈ 437 µM).

On to `C=CCCSc1ncnc2c1cnn2Cc1ccc(Cl)cc1`, for which 125 µg/mL (≈ 378 µM) was the least that counted as inhibitory in data set [1] (MIC).

Regarding `C=CCSc1ncnc2c1cnn2CCC`, it took 125 µg/mL (≈ 533 µM) to inhibit growth in data set [1] (MIC).

In data set [1], `C=CCSc1ncnc2c1cnn2Cc1ccccc1` came in with an MIC of 32 µg/mL (≈ 113 µM).

Regarding `NNC(=O)c1ccncc1` [ISONIAZID], the MIC in data set [1] amounted to 0.25 µg/mL (≈ 1.82 µM).

Consider `c1ccc(CSc2ncnc3c2cnn3Cc2cccnc2)cc1`, for which the CC50 in data set [2] was over 40 µg/mL. This compound also gave a minimum inhibitory concentration (MIC) in data set [1] of 8 µg/mL (≈ 24 µM).

Turning to `N#CCSc1ncnc2[nH]ncc12`, the MIC in data set [1] was determined as 63 µg/mL (≈ 329 µM).

Compound `C=CCSc1ncnc2[nH]ncc12` showed an MIC in data set [1] of 250 µg/mL (≈ 1300 µM).

In turn, `C=CCn1ncc2c(SCc3ccccc3Cl)ncnc21` showed an MIC in data set [1] of 32 µg/mL (≈ 101 µM).

With `CC[C@@H](CO)NCCN[C@@H](CC)CO` [ETHAMBUTOL], the MIC in data set [1] came to 2.5 µg/mL (≈ 12.2 µM).

Turning to `c1ccc(Cn2ncc3c(SCc4ccncc4)ncnc32)cc1`, in data set [1], the MIC was found to be 32 µg/mL (≈ 96 µM).

In turn, `C=CCSc1ncnc2c1cnn2CCO` displayed an MIC in data set [1] of 250 µg/mL (≈ 1060 µM).

`CCCn1ncc2c(SCc3ccccc3)ncnc21` returned an MIC in data set [1] of 32 µg/mL (≈ 113 µM).

With `N#CCn1ncc2c(SCc3ccc(Cl)cc3)ncnc21`, in data set [2], the CC50 came to 2 µg/mL (≈ 6.33 µM). For the same compound, the MIC in data set [1] came out at 8 µg/mL (≈ 25.3 µM).

`C=CCCSc1ncnc2c1cnn2Cc1cccnc1` registered an MIC in data set [1] of 32 µg/mL (≈ 108 µM).

Compound `Clc1ccccc1CSc1ncnc2c1cnn2Cc1ccccc1` returned an MIC in data set [1] of 250 µg/mL (≈ 681 µM).

In data set [1], `OCCSc1ncnc2c1cnn2Cc1ccccc1` displayed an MIC of 63 µg/mL (≈ 220 µM).

`CO[C@H]1/C=C/O[C@@]2(C)Oc3c(C)c(O)c4c(O)c(c(/C=N/N5CCN(C)CC5)c(O)c4c3C2=O)NC(=O)/C(C)=C\C=C\[C@H](C)[C@H](O)[C@@H](C)[C@@H](O)[C@@H](C)[C@H](OC(C)=O)[C@@H]1C` [RIFAMPIN] displayed an MIC in data set [1] of 0.016 µg/mL (≈ 0.0194 µM).

Regarding `C=CCn1ncc2c(SCC3CC3)ncnc21`, the lowest concentration to inhibit growth in data set [1] (MIC) was 125 µg/mL (≈ 507 µM).

`C=CCn1ncc2c(SCc3cccnc3)ncnc21` yielded a minimal inhibitory concentration (MIC) in data set [1] of 250 µg/mL (≈ 882 µM).

Turning to `C=CCn1ncc2c(SCC#N)ncnc21`, the CC50 in data set [2] was determined as 4 µg/mL (≈ 17.3 µM). Further, in data set [1], it took 32 µg/mL (≈ 138 µM) to inhibit growth (MIC).

Take `C=CCn1ncc2c(SCc3ccc(Cl)cc3)ncnc21`: the CC50 in data set [2] was over 20 µg/mL. The MIC in data set [1] was 8 µg/mL (≈ 25.3 µM).

Turning to `C=CCCn1ncc2c(SCc3ccccc3)ncnc21`, the MIC in data set [1] is 16 µg/mL (≈ 54 µM).

`C=CCn1ncc2c(SCc3ccncc3)ncnc21` registered an MIC in data set [1] of 125 µg/mL (≈ 441 µM).

In data set [1], `C#CCSc1ncnc2c1cnn2Cc1ccccc1` displayed a minimum inhibitory concentration (MIC) of 63 µg/mL (≈ 225 µM).

As to `C=CCn1ncc2c(SCCC)ncnc21`, the MIC in data set [1] is 63 µg/mL (≈ 269 µM).

`c1cc(CSc2ncnc3[nH]ncc23)ccn1` yielded an MIC in data set [1] of 250 µg/mL (≈ 1030 µM).

Compound `Clc1ccc(Cn2ncc3c(SCc4ccccc4)ncnc32)cc1` gave an MIC in data set [1] of 16 µg/mL (≈ 43.6 µM).

`Clc1ccc(CSc2ncnc3c2cnn3Cc2cccnc2)cc1`: the CC50 in data set [2] was over 40 µg/mL. Moreover, the MIC in data set [1] worked out at 0.5 µg/mL (≈ 1.36 µM).

As for `C=CCn1ncc2c(SCCO)ncnc21`, in data set [1], 250 µg/mL (≈ 1060 µM) was the least that counted as inhibitory (MIC).

For `c1ccc(CSc2ncnc3c2cnn3Cc2ccccc2)cc1`, in data set [1], the MIC is 16 µg/mL (≈ 48.1 µM).

`Clc1ccc(CSc2ncnc3[nH]ncc23)cc1` had an MIC in data set [1] of 250 µg/mL (≈ 903 µM).
